Laboratory results from PubChem BioAssay AID330 (DTP/NCI, 2004).
“And” between values parts separate entries of the source, which are not always exact repeats. Identical values can stand only once. Inconclusive results and toxic doses are left out. Rule for the calls: active = survival T/C of 150% or more; inactive = T/C below 125% in these data.

Tested on: P388 leukemia ip, CD2F1 mice, survival T/C
Assay: NCI In Vivo Anticancer Drug Screen. Data for tumor model P388 Leukemia (intraperitoneal) in CD2F1 (CDF1) mice
Conditions: endpoint: median survival time, higher = longer survival
Method in brief: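 Mice carrying the transplanted tumor received test compound or vehicle. Survival was recorded in each group, and the value is the treated-group measurement divided by that of the vehicle-treated control group.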

[1] = dose: 25.0 mg/kg/injection, schedule: Q01DX009 (ip), vehicle: saline with Tween-80
[2] = dose: 50.0 mg/kg/injection, schedule: Q01DX009 (ip), vehicle: saline with Tween-80
[3] = dose: 100.0 mg/kg/injection, schedule: Q01DX009 (ip), vehicle: saline with Tween-80
[4] = dose: 200.0 mg/kg/injection, schedule: Q01DX009 (ip), vehicle: saline with Tween-80
[5] = dose: 60.0 mg/kg/injection, schedule: Q01DX005 (ip), vehicle: saline with Tween-80
[6] = dose: 120.0 mg/kg/injection, schedule: Q01DX005 (ip), vehicle: saline with Tween-80
[7] = dose: 240.0 mg/kg/injection, schedule: Q01DX005 (ip), vehicle: saline with Tween-80
[8] = dose: 50.0 mg/kg/injection, schedule: Q01DX005 (ip), vehicle: Klucel (hydroxypropylcellulose) (HPC)
[9] = dose: 100.0 mg/kg/injection, schedule: Q01DX005 (ip), vehicle: Klucel (hydroxypropylcellulose) (HPC)
[10] = dose: 200.0 mg/kg/injection, schedule: Q01DX005 (ip), vehicle: Klucel (hydroxypropylcellulose) (HPC)
[11] = dose: 12.5 mg/kg/injection, schedule: Q01DX005 (ip), vehicle: saline with Tween-80
[12] = dose: 50.0 mg/kg/injection, schedule: Q01DX005 (ip), vehicle: saline with Tween-80
[13] = dose: 100.0 mg/kg/injection, schedule: Q01DX005 (ip), vehicle: saline with Tween-80
[14] = dose: 50.0 mg/kg/injection, schedule: Q01DX009 (ip), vehicle: saline
[15] = dose: 100.0 mg/kg/injection, schedule: Q01DX009 (ip), vehicle: saline
[16] = dose: 50.0 mg/kg/injection, schedule: Q01DX009 (ip), vehicle: Klucel (hydroxypropylcellulose) (HPC)
[17] = dose: 100.0 mg/kg/injection, schedule: Q01DX009 (ip), vehicle: Klucel (hydroxypropylcellulose) (HPC)
[18] = dose: 200.0 mg/kg/injection, schedule: Q01DX009 (ip), vehicle: Klucel (hydroxypropylcellulose) (HPC)

Measured: T/C

CC1(C)Nc2cccc3c(N=Nc4ccc(N=Nc5ccccc5)c5ccccc45)ccc(c23)N1
inactive: [1] 120 % of control and 95 % of control and 97 % of control | [2] 101 % of control and 103 % of control and 112 % of control | [3] 104 % of control and 123 % of control and 91 % of control | [4] 94 % of control and 95 % of control

CCCS(=O)(=O)CCC(=O)c1ccccc1
inactive: dose: 100.0 mg/kg/injection, schedule: Q04DX002 (ip), vehicle: saline 101 % of control | dose: 200.0 mg/kg/injection, schedule: Q04DX002 (ip), vehicle: saline 107 % of control | dose: 400.0 mg/kg/injection, schedule: Q04DX002 (ip), vehicle: saline 102 % of control

O=NNc1nc2ccccc2[nH]1
inactive: dose: 3.12 mg/kg/injection, schedule: Q01DX009 (ip), vehicle: water 99 % of control | dose: 6.25 mg/kg/injection, schedule: Q01DX009 (ip), vehicle: water 103 % of control | dose: 12.5 mg/kg/injection, schedule: Q01DX009 (ip), vehicle: water 109 % of control | dose: 25.0 mg/kg/injection, schedule: Q01DX009 (ip), vehicle: water 103 % of control and 98 % of control | dose: 50.0 mg/kg/injection, schedule: Q01DX009 (ip), vehicle: water 100 % of control and 97 % of control | dose: 100.0 mg/kg/injection, schedule: Q01DX009 (ip), vehicle: water 97 % of control | dose: 200.0 mg/kg/injection, schedule: Q01DX009 (ip), vehicle: water 91 % of control

O=C(CCCl)Nc1ccccc1C(=O)CCc1cn(C(=O)CCCl)c2ccccc12
inactive: [5] 107 % of control | [6] 102 % of control | [7] 96 % of control

CC(=O)N=c1sccn1CC(=O)c1ccccc1
inactive: dose: 25.0 mg/kg/injection, schedule: Q04DX003 (ip), vehicle: Klucel (hydroxypropylcellulose) (HPC) 119 % of control | dose: 50.0 mg/kg/injection, schedule: Q04DX003 (ip), vehicle: Klucel (hydroxypropylcellulose) (HPC) 96 % of control | dose: 100.0 mg/kg/injection, schedule: Q01DX001 (ip), vehicle: Klucel (hydroxypropylcellulose) (HPC) 100 % of control | dose: 200.0 mg/kg/injection, schedule: Q01DX001 (ip), vehicle: Klucel (hydroxypropylcellulose) (HPC) 100 % of control | dose: 400.0 mg/kg/injection, schedule: Q01DX001 (ip), vehicle: Klucel (hydroxypropylcellulose) (HPC) 101 % of control

C=CCCC(=O)SC(C)(C)C
inactive: dose: 100.0 mg/kg/injection, schedule: Q04DX003 (ip), vehicle: Klucel (hydroxypropylcellulose) (HPC) 112 % of control | dose: 200.0 mg/kg/injection, schedule: Q04DX003 (ip), vehicle: Klucel (hydroxypropylcellulose) (HPC) 110 % of control | dose: 400.0 mg/kg/injection, schedule: Q04DX003 (ip), vehicle: Klucel (hydroxypropylcellulose) (HPC) 103 % of control

Nc1ccc(O)c2c1C(=O)c1c(O)c(S(=O)(=O)O)cc(N)c1C2=O
inactive: dose: 25.0 mg/kg/injection, schedule: Q01DX005 (ip), vehicle: Klucel (hydroxypropylcellulose) (HPC) 108 % of control | [8] 102 % of control | [9] 105 % of control | [10] 102 % of control

CN(N=O)c1ccc(N=Nc2ccccc2)cc1
inactive: dose: 60.0 mg/kg/injection, schedule: Q01DX005 (ip), vehicle: Klucel (hydroxypropylcellulose) (HPC) 98 % of control | dose: 120.0 mg/kg/injection, schedule: Q01DX005 (ip), vehicle: Klucel (hydroxypropylcellulose) (HPC) 95 % of control | dose: 240.0 mg/kg/injection, schedule: Q01DX005 (ip), vehicle: Klucel (hydroxypropylcellulose) (HPC) 86 % of control

CC1CC(C)C(C)C(CNCC2CC(C)CC(C)C2C)C1 (stereo not drawn)
inactive: [11] 99 % of control | dose: 25.0 mg/kg/injection, schedule: Q01DX005 (ip), vehicle: saline with Tween-80 99 % of control | [12] 102 % of control and 97 % of control | [13] 102 % of control

CCOP(=S)(N/N=C/c1ccc(C)s1)OCC
inactive: [8] 110 % of control | [9] 112 % of control | [10] 117 % of control

CCOC(=O)c1nc2ccccc2c(=O)[nH]1
inactive: [3] 102 % of control | [4] 108 % of control | dose: 400.0 mg/kg/injection, schedule: Q01DX009 (ip), vehicle: saline with Tween-80 100 % of control

O=C(Nc1ccccc1)N1CCOCC1
inactive: [5] 106 % of control | [6] 103 % of control | [7] 95 % of control

CCOC(=O)CNC(=O)NC(Cc1ccccc1)C(=O)OCC (stereo not drawn)
inactive: [12] 107 % of control | [13] 97 % of control

N#CC(C(=O)C(N)=O)c1nc2ccccc2s1 (stereo not drawn)
inactive: [12] 105 % of control | [13] 101 % of control

CC(C)N(C(=S)/N=C1/SC(C)S(=O)(=O)N1C)C(C)C (stereo not drawn)
inactive: [1] 117 % of control | [2] 97 % of control | [3] 100 % of control

c1ccc(Sc2ncccn2)nc1
inactive: [14] 108 % of control | [15] 115 % of control

Cc1nc(-c2ccccc2)nc2c1nc(Cc1ccc(Cl)cc1)n2Nc1ccccc1
inactive: [8] 95 % of control | [9] 91 % of control | [10] 88 % of control

Cc1c([N+](=O)[O-])oc2c1C(=O)NCCC2
inactive: [16] 104 % of control | [17] 91 % of control | [18] 108 % of control

N#C/C(=C\c1cccs1)c1nc(-c2ccc(Cl)cc2)cs1
inactive: [14] 91 % of control | [15] 91 % of control

FC(F)(F)C(F)(F)c1nc2nc(Cl)c(Cl)nc2[nH]1
inactive: dose: 50.0 mg/kg/injection, schedule: Q04DX003 (ip), vehicle: other 100 % of control | dose: 100.0 mg/kg/injection, schedule: Q04DX003 (ip), vehicle: other 118 % of control | dose: 200.0 mg/kg/injection, schedule: Q04DX003 (ip), vehicle: other 113 % of control

C=C1Cc2cc(OC)c(OC)cc2C(c2cccc(Cl)c2)=NN1C(C)=O
inactive: [5] 95 % of control | [6] 97 % of control | [7] 100 % of control

COc1cc(OC)c(C2SCC(=O)N2c2nnc(C(F)(F)F)s2)cc1OC (stereo not drawn)
inactive: [5] 100 % of control | [6] 99 % of control | [7] 98 % of control

Cc1c2cnccc2c(CO)c2[nH]c3ccccc3c12
active: dose: 100.0 mg/kg/injection, schedule: Q04DX002 (ip), vehicle: saline with Tween-80 163 % of control
inactive: dose: 12.5 mg/kg/injection, schedule: Q04DX002 (ip), vehicle: saline with Tween-80 119 % of control

COc1ccc2c(c1)CCc1cn[nH]c1-2
inactive: [8] 93 % of control | [9] 92 % of control | [10] 93 % of control

O=C1NC(=O)N2CC(CBr)OC2C1c1ccccc1 (stereo not drawn)
inactive: [16] 101 % of control | [17] 100 % of control | [18] 100 % of control

O=c1c2ccccc2sc2cccc(NCCN3CCC(C4CCN(CCNc5cccc6sc7ccccc7c(=O)c56)CC4)CC3)c12
inactive: dose: 6.25 mg/kg/injection, schedule: Q01DX005 (ip), vehicle: saline with Tween-80 105 % of control | [11] 90 % of control | [12] 96 % of control | [13] 92 % of control

CC1CN(C(=O)/C=C/C(=O)OC2CCCCC2)C(C)CN1C(=O)/C=C/C(=O)OC1CCCCC1 (stereo not drawn)
inactive: [8] 98 % of control | [9] 94 % of control | [10] 97 % of control

O=[N+]([O-])c1ccc(N/N=C(\CO)c2ccccc2)c([N+](=O)[O-])c1
inactive: dose: 50.0 mg/kg/injection, schedule: Q04DX003 (ip), vehicle: saline with Tween-80 100 % of control | dose: 100.0 mg/kg/injection, schedule: Q04DX003 (ip), vehicle: saline with Tween-80 104 % of control | dose: 200.0 mg/kg/injection, schedule: Q04DX003 (ip), vehicle: saline with Tween-80 100 % of control

Cc1ccc2c(c1)C1(SC(C)C(=O)N1c1ccc(Cl)cc1)C(=O)N2 (stereo not drawn)
inactive: dose: 30.0 mg/kg/injection, schedule: Q01DX005 (ip), vehicle: saline with Tween-80 103 % of control | [5] 114 % of control and 121 % of control | [6] 119 % of control

CS(=O)(=O)Nc1ccc(Nc2c3ccccc3nc3cc(Cl)ccc23)cc1
active: dose: 100.0 mg/kg/injection, schedule: Q04DX003 (ip), vehicle: saline 181 % of control | dose: 200.0 mg/kg/injection, schedule: Q04DX003 (ip), vehicle: saline 240 % of control

CC(C)=CCC1=CC(=O)C(CC=C(C)C)=CC1=O
inactive: dose: 3.12 mg/kg/injection, schedule: Q01DX009 (ip), vehicle: saline with Tween-80 105 % of control | dose: 6.25 mg/kg/injection, schedule: Q01DX009 (ip), vehicle: saline with Tween-80 118 % of control | dose: 12.5 mg/kg/injection, schedule: Q01DX009 (ip), vehicle: saline with Tween-80 100 % of control | [1] 90 % of control and 96 % of control
